The structures appear in SMILES notation.

For one test, the target named is T1, H3 receptor (Cavia porcellus, UniProt Q9JI35).
T1 construct: from tissue; host or cells: guinea pig brain membranes
The experiment in a line: H3 receptor binding, displacement of radiolabeled Nα-methylhistamine from guinea pig brain membranes. Conditions: affinity for the H3 receptor. An excerpt:
Compounds can readily be evaluated to determine activity at H3 receptors by known methods, including the guinea pig brain membrane assay and the guinea pig neurogenic ileum contraction assay, both of which are described in U.S. Pat. No. 5,352,707. Another useful assay utilizes rat brain membranes and is described by West et al., “Identification of Two H3-Histamine Receptor Subtypes,” Molecular Pharmacology, Vol. 38, pages 610-613 (1990).
A particularly useful screening assay measures binding to sites in guinea pig brain membranes. This test is described in detail by Korte et al., “Characterization and Tissue Distribution of H3 Histamine Receptors in Guinea Pigs by N^α-Methylhistamine,” in Biochemical and Biophysical Research Communications, Vol. 168, pages 979-986 (1990), and quantifies the displacement of bound radiolabeled N^α-methylhistamine from tissues by candidate compounds. Results are expressed as “Ki” values, in nanoMolar (nM) units, which values can be considered as being dissociation constants for the H3 antagonist on the H3 receptor system, or an index of antagonist affinity for the receptor. In general, Ki values less than about 200 nM are considered necessary for an agent to be useful as an H3 antagonist in the invention.

For test [1], the target named is T2, cloned human m2 muscarinic receptor (Homo sapiens, UniProt P08172).
T2 sequence (P08172 1-466): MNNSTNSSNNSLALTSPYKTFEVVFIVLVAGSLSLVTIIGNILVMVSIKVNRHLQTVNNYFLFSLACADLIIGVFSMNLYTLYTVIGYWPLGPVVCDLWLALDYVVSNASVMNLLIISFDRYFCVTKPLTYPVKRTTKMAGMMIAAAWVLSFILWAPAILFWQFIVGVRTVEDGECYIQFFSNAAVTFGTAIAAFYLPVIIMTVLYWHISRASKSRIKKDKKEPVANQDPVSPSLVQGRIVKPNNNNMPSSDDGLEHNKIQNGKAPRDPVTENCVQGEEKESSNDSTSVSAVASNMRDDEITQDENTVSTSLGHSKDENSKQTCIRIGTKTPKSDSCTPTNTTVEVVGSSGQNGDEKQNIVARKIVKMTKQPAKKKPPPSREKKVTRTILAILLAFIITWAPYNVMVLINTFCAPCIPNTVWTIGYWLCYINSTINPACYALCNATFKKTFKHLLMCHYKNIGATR
Description: Binding to cloned human m2 muscarinic receptor (3H-QNB, CHO cell membranes). Conditions: affinity for the m2 receptor; 3H-QNB displacement.

T1 sequence (Q9JI35 whole entry): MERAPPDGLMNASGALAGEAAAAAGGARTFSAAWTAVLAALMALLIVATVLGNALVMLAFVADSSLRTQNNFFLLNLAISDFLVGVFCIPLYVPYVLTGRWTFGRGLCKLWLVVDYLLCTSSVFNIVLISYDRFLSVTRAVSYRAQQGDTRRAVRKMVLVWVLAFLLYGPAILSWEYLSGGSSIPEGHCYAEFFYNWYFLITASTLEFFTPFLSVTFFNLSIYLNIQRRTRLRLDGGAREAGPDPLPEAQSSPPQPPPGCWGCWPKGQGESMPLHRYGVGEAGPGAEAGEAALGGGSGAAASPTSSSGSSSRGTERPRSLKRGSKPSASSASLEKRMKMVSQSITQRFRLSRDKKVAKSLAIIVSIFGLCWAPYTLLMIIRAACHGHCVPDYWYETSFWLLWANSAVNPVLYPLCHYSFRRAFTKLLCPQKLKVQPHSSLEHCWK

As a reminder, the Ki is the dissociation constant of the complex between target and ligand, obtained from inhibition or displacement. Low readings indicate tighter binding, high ones weaker binding. For the molecule `CCN(CC)CCOc1ccc(CN2CCC(C3CCN(Cc4ccc(C(=O)NC(C)C)cc4)CC3)CC2)cc1` [Compound 1], the Ki on H3 receptor was determined as 18 nM; in test [1], 0.17 nM.

With `CCCS(=O)(=O)N1CCC(N2CCC(C3(c4ccc(S(=O)(=O)c5ccc6c(c5)OCO6)cc4)OCCO3)CC2)CC1` [Compound 2], the values for the Ki (at H3 receptor; in test [1]) were 140 nM and 0.01 nM, respectively.

As for `O=C(NCC1CC1)c1ccc(CN2CCC(C3CCN(Cc4ccc(C(=O)NCC5CC5)cc4)CC3)CC2)cc1` [Compound 3], the Ki at H3 receptor stood at 500 nM; in test [1], 0.125 nM.

With `c1ccc(CN2CCC(C3CCN(Cc4ccccc4)CC3)CC2)cc1` [Compound 4], the inhibition constant (Ki) was 620 nM on H3 receptor and 3.4 nM in test [1].

On to `CC(C)(C)OC(=O)N1CCC(C2CCN(Cc3ccc(S(=O)(=O)c4ccc5c(c4)OCO5)cc3)CC2)CC1` [Compound 5], for which the figures for the inhibition constant Ki (at H3 receptor; in test [1]) were 430 nM and 2.6 nM, respectively.

Consider `Cc1ccccc1C(=O)N1CCC(C2CCN(Cc3ccc(S(=O)(=O)c4ccc5c(c4)OCO5)cc3)CC2)CC1` [Compound 6], for which the figures for the Ki (on H3 receptor; in test [1]) were 160 nM and 1.2 nM, respectively.

Regarding `CCN(CC)CCOc1ccc(CN2CCC(C3CCN(Cc4ccc(S(=O)(=O)c5ccc6c(c5)OCO6)cc4)CC3)CC2)cc1` [Compound 7], the inhibitory constant (Ki) on H3 receptor turned out to be 22 nM; in test [1], 0.07 nM.

Consider `CN(C)CCCOc1ccc(CN2CCC(C3CCN(Cc4ccc(S(=O)(=O)c5ccc6c(c5)OCO6)cc4)CC3)CC2)cc1` [Compound 8], for which the inhibition constant (Ki) at H3 receptor stood at 6 nM; in test [1] it was 0.05 nM.

`O=C(NCC1CC1)c1ccc(CN2CCC(C3CCN(Cc4ccc(S(=O)(=O)c5ccc6c(c5)OCO6)cc4)CC3)CC2)cc1` [Compound 9]: the Ki at H3 receptor stood at 290 nM; in test [1] it was 0.22 nM.

As for `CN(C)CCCOc1ccc(CN2CCC(N3CCC(C(=O)c4ccc(S(=O)(=O)c5ccc6c(c5)OCO6)cc4)CC3)CC2)cc1` [Compound 10], the Ki was found to be 15 nM on H3 receptor and 0.019 nM in test [1].

Turning to `CCN(CC)CCOc1ccc(CN2CCC(N3CCC(C(=O)c4ccc(S(=O)(=O)c5ccc6c(c5)OCO6)cc4)CC3)CC2)cc1` [Compound 11], the inhibition constant Ki turned out to be 8 nM at H3 receptor and 0.018 nM in test [1].

Consider `CCCCOc1ccc(CN2CCC(N3CCC(C(=O)c4ccc(S(=O)(=O)c5ccc6c(c5)OCO6)cc4)CC3)CC2)cc1` [Compound 12], for which the inhibitory constant (Ki) is 170 nM at H3 receptor and 4.8 nM in test [1].

Consider `CN(C)CCCOc1ccc(CN2CCC(N3CCC(C4(c5ccc(S(=O)(=O)c6ccc7c(c6)OCO7)cc5)OCCO4)CC3)CC2)cc1` [Compound 13], for which the Ki came out at 12 nM on H3 receptor and 0.8 nM in test [1].

Consider `CCN(CC)CCOc1ccc(CN2CCC(N3CCC(C4(c5ccc(S(=O)(=O)c6ccc7c(c6)OCO7)cc5)OCCO4)CC3)CC2)cc1` [Compound 14], for which the results for the inhibitory constant (Ki) (at H3 receptor; in test [1]) were 2 nM and 0.7 nM, respectively.

Turning to `CCCCOc1ccc(CN2CCC(N3CCC(C4(c5ccc(S(=O)(=O)c6ccc7c(c6)OCO7)cc5)OCCO4)CC3)CC2)cc1` [Compound 15], the values for the Ki (on H3 receptor; in test [1]) were 43 nM and 0.17 nM, respectively.

(Values after patent publication US6906081B2, “Use of dual H3/M2 antagonists in the treatment of cognition deficit disorders” (Schering Corporation, priority 2001, dated 2005).)
